Test results reported in patent publication US12551478B2, “Quinoline derivative having indoleamine-2,3-dioxygenase inhibitory activity” (SHENZHEN CHIPSCREEN BIOSCIENCES CO., LTD., priority 2018, dated 2026).

target: T1, human indoleamine 2,3-dioxygenase 1 (hIDO1) (Homo sapiens, UniProt P14902); experiment: Inhibitory activity test at cellular level: IFN-γ-induced HeLa cells, kynurenine colour reaction; type: cell-based; conditions: 50 ng/ml human IFN-γ, 200 μM L-tryptophan, 48 hours, each test compound 100 nM, read-out: hIDO1-cell base inhibition rate (%)
T1 construct: up-regulate the expression of endogenous IDO1 under the induction of human IFN-γ; endogenous in cells; host or cells: HeLa cells stimulated with human IFN-γ
T1 sequence (P14902 whole entry): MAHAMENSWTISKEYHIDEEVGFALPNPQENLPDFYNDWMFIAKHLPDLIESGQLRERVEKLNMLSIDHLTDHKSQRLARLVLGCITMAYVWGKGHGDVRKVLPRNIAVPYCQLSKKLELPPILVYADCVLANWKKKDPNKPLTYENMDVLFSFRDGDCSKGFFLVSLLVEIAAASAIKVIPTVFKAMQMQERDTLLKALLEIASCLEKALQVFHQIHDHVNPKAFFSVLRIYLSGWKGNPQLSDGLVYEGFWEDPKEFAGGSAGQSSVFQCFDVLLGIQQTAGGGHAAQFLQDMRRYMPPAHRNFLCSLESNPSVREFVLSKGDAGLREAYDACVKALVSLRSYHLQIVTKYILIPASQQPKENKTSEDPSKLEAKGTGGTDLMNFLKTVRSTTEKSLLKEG
Description: The subject of this assay was to comprehensively evaluate different compounds on their enzymatic inhibitory activity in vitro and on cell models against human indoleamine 2,3-dioxygenase 1 (hIDO1).
In the present application, the inventors used Hela cells expressing IDO1 induced by IFN-γ as a model, to test the IDO1 inhibitory activity of the compounds at the cellular level.
HeLa cells are human cervical cancer cell lines, which can up-regulate the expression of endogenous IDO1 under the induction of human IFN-γ. By adding the substrate L-tryptophan to cell culture medium, the enzymatic catalysis product kynurenine in cell supernatant was detected. In this experiment, the cultured Hela cells were used and co-incubated with different concentrations of test compounds under stimulation of human IFN-γ for a specified period of time, and the color reaction method of enzyme product and p-dimethylaminobenzaldehyde was used to detect the effect on IDO enzyme activity of cells treated by the test compounds.
(1) Hela cells were inoculated into 96-well culture plates at an appropriate concentration (about 20,000 cells/well). […] The cells were continuously cultured for 48 hours before detection.
(2) 200 μL of the supernatant in the culture well was pipetted out, added with 40 μL of the pre-prepared 30% (w/v) trichloroacetic acid solution, and reacted at 65° C. for 20 minutes, and then centrifuged at 12000 rpm for 15 minutes.
(3) 100 μL of the supernatant after centrifugation was pipetted out, added into a 96-well flat bottom plate, then added with an equal volume of 2% p-dimethylaminobenzaldehyde in glacial acetic acid and mixed well, and stood at room temperature for 10 minutes.
(4) microplate reader (ELX800NB) was used to detect the absorbance value of each well, and the detection wavelength was 492 nm.
In addition, after the cell enzyme activity inhibition rates of test compounds with different concentration gradients were separately calculated, their cell enzyme activity half inhibition concentrations (EC50) were calculated by using EC50 calculator.
According to the above-mentioned experimental method, the compounds of the present application were subjected to IDO1 enzymatic evaluation at cytological level (the concentration of each test compound was all 100 nM).
According to the above-mentioned experimental method, the compound of the present application was subjected to hIDO1-cell base EC50 detection.

SMILES | inhibition at 0.1 µM
COc1ccc(NC(=O)C(C)N2CC3C(C2)C3Nc2ccnc3ccc(F)cc23)cc1 (centres unmarked) [Example 73, 2-(6-((6-fluoroquinolin-4-yl)amino)-3-aza-bicyclo[3.1.0]hexan-3-yl)-N-(4-methoxyphenyl)propionamide] | 83%
O=C(Nc1ccc(F)cc1)N1CC2C(C1)C2Oc1ccnc2ccc(F)cc12 (centres unmarked) [Example 30, N-(4-fluorophenyl)-6-((6-fluoroquinolin-4-yl)oxy)-3-aza-cyclo[3.1.0]hexan-3-carboxamide] | 11%
CC(C(=O)Nc1ccccc1)N1CC2C(C1)C2Nc1ccnc2ccc(F)cc12 (centres unmarked) [Example 74, 2-(6-((6-fluoroquinolin-4-yl)amino)-3-aza-bicyclo[3.1.0]hexan-3-yl)-N-phenyl-propionamide] | 85%
COC/C=C/c1ccc(NC(=O)N2CC3(CC(Oc4ccnc5ccc(F)cc45)C3)C2)cc1 [Example 10] | 90%
O=C(c1ccc(Cl)cc1)N1CC2(CC(Oc3ccnc4ccc(F)cc34)C2)C1 [Example 6, (4-chlorophenyl)(6-((6-fluoroquinolin-4-yl)oxy)-2-aza-spiro[3.3]heptan-2-yl) methanone] | 87%
O=C(Nc1ccc2c(c1)CCO2)N1CC2(CC(Oc3ccnc4ccc(F)cc34)C2)C1 [Example 32, N-(2,3-dihydrobenzofuran-5-yl)-6-((6-fluoroquinolin-4-yl)oxy)-2-aza-spiro[3.3]heptan-2-carboxamide] | 44%
COc1cccc(NC(=O)N2CC3(CC(Oc4ccnc5ccc(F)cc45)C3)C2)c1 [Example 4, N-(3-methoxyphenyl)-6-((6-fluoroquinolin-4-yl)oxy)-2-aza-spiro[3.3]heptan-2-carboxamide] | 49%
CC(C(=O)Nc1cccnc1)N1CC2(CC(Oc3ccnc4ccc(F)cc34)C2)C1 (centres unmarked) [Example 41, 2-(6-((6-fluoroquinolin-4-yl)oxo)-2-aza-spiro[3.3]heptan-2-yl)-N-(pyridin-3-yl)propionamide] | 23%
CC(C(=O)NC1CCCCC1)N1CC2(CC(Oc3ccnc4ccc(F)cc34)C2)C1 (centres unmarked) [Example 40, N-cyclohexyl-2-(6-((6-fluoroquinolin-4-yl)oxo)-2-aza-spiro[3.3]heptan-2-yl)propionamide] | 19%
O=C(/C=C/c1ccc(Cl)cc1)N1CC2(CC(Oc3ccnc4ccc(F)cc34)C2)C1 [Example 7, (E)-3-(4-chlorophenyl)-1-(6-((6-fluoroquinolin-4-yl)oxy)-2-aza-spiro[3.3]heptan-2-yl)prop-2-en-1-one] | 31%
CC(C(=O)Nc1ccc(Cl)cc1)N1CCC2CN(c3ccnc4ccc(F)cc34)CC2C1 (centres unmarked) [Example 64, N-(4-chlorophenyl)-2-(2-(6-fluoroquinolin-4-yl)octahydro-5H-pyrrolo[3,4-c]pyridin-5-yl)propionamide] | 96%
O=C(Nc1ccc(Cl)cc1)N1CC2(CC(Oc3cnc4ccccc4c3)C2)C1 [Example 26, N-(4-chlorophenyl)-6-(quinolin-3-yloxy)-2-aza-spiro[3.3]heptan-2-carboxamide] | 15%
COc1ccc(NC(=O)N2CC3(CC(Oc4ccnc5ccc(F)cc45)C3)C2)cc1 [Example 5, N-(4-methoxyphenyl)-6-((6-fluoroquinolin-4-yl)oxy)-2-aza-spiro[3.3]heptan-2-carboxamide] | 63%
CC(C(=O)Nc1ccc(Cl)cc1)N1CC2CC(Nc3ccnc4ccc(F)cc34)CC2C1 (centres unmarked) [Example 83, N-(4-chlorophenyl)-2-(5-((6-fluoroquinolin-4-yl)amino)hexahydro-cyclopenta[c]pyrrol-2(1H)-yl)propionamide] | 45%

The remaining lines, values ahead:

inhibition at 0.1 µM | SMILES
49% | CC(C(=O)Nc1ccc(Cl)cc1)N1CC2C(COc3ccnc4ccc(F)cc34)C2C1 (centres unmarked) [Example 46, N-(4-chlorophenyl)-2-(6-(((6-fluoroquinolin-4-yl)oxo)methyl)-3-aza-bicyclo[3.1.0]hexan-3-yl)propionamide]
18% | O=C(NCc1ccc(Cl)cc1)N1CC2(CC(Oc3ccnc4ccc(F)cc34)C2)C1 [Example 15, N-(4-chlorobenzyl)-6-((6-fluoroquinolin-4-yl)oxy)-2-aza-spiro[3.3]heptan-2-carboxamide]
26% | O=C(Nc1ccc(Cl)cc1)N1CC2(CC(Oc3nccc4ccccc34)C2)C1 [Example 36, N-(4-chlorophenyl)-6-(isoquinolin-1-yloxy)-2-aza-spiro[3.3]heptan-2-carboxamide]
90% | COc1ccc(NC(=O)C(C)N2CCC3CN(c4ccnc5ccc(F)cc45)CC3C2)cc1 (centres unmarked) [Example 66, 2-(2-(6-fluoroquinolin-4-yl)octahydro-5H-pyrrolo[3,4-c]pyridin-5-yl)-N-(4-methoxyphenyl)propionamide]
94% | CC(C(=O)Nc1ccccc1)N1CCC2CN(c3ccnc4ccc(F)cc34)CC2C1 (centres unmarked) [Example 67, 2-(2-(6-fluoroquinolin-4-yl)octahydro-5H-pyrrolo[3,4-c]pyridin-5-yl)-N-phenyl-propionamide]
91% | CC(C(=O)Nc1ccc(Cl)cc1)N1CC2(CC(Oc3ccnc4ccc(F)cc34)C2)C1 (centres unmarked) [Example 39, N-(4-chlorophenyl)-2-(6-((6-fluoroquinolin-4-yl)oxo)-2-aza-spiro[3.3]heptan-2-yl)propionamide]
10% | O=C(Nc1ccc2c(c1)OCCO2)N1CC2(CC(Oc3ccnc4ccc(F)cc34)C2)C1 [Example 33, N-(2,3-dihydrobenzo[b][1,4]dioxin-6-yl)-6-((6-fluoroquinolin-4-yl)oxy)-2-aza-spiro[3.3]heptan-2-carboxamide]
42% | O=C(Nc1ccc(Cl)cc1)C(CO)N1CC2C(C1)C2Nc1ccnc2ccc(F)cc12 (centres unmarked) [Example 78, N-(4-chlorophenyl)-2-(6-((6-fluoroquinolin-4-yl)amino)-3-aza-bicyclo[3.1.0]hexan-3-yl)-3-hydroxypropionamide]
85% | CC(C(=O)Nc1ccc(Cl)cc1)N1CC2(CC(N(C)c3ccnc4ccc(F)cc34)C2)C1 (centres unmarked) [Example 59, N-(4-chloro)-2-(6-((6-fluoroquinolin-4-yl)(methyl)amino)-2-aza-spiro[3.3]heptan-2-yl)propionamide]
85% | O=C(Nc1ccc(F)cc1)N1CC2(CC(Oc3ccnc4ccc(F)cc34)C2)C1 [Example 16, N-(4-fluorophenyl)-6-((6-fluoroquinolin-4-yl)oxy)-2-aza-spiro[3.3]heptan-2-carboxamide]
59% | COc1cccc(NC(=O)C(C)N2CCC3CN(c4ccnc5ccc(F)cc45)CC3C2)c1 (centres unmarked) [Example 65, 2-(2-(6-fluoroquinolin-4-yl)octahydro-5H-pyrrolo[3,4-c]pyridin-5-yl)-N-(3-methoxyphenyl)propionamide]
25% | O=C(CNc1ccccc1)N1CC2(CC(Oc3ccnc4ccc(F)cc34)C2)C1 [Example 11, 1-(6-((6-fluoroquinolin-4-yl)oxy)-2-aza-cyclo[3.3]heptan-2-yl)-2-(anilino)ethyl-1-one]
46% | O=C(Nc1ccc(Cl)cc1)N1CC2C(C1)C2Oc1ccnc2ccc(F)cc12 (centres unmarked) [Example 31, N-(4-chlorophenyl)-6-((6-fluoroquinolin-4-yl)oxy)-3-aza-cyclo[3.1.0]hexan-3-carboxamide]
99% | CC(C(=O)Nc1ccc(Cl)cc1)N1CC2C(C1)C2Oc1ccnc2ccc(F)cc12 (centres unmarked) [Example 49, N-(4-chlorophenyl)-2-(6-((6-fluoroquinolin-4-yl)oxo)-3-aza-bicyclo[3.1.0]hexan-3-yl)propionamide]
61% | O=C(Nc1ccc(Cl)cc1)N1CC2(CCC(Nc3ccnc4ccc(F)cc34)C2)C1 (centres unmarked) [Example 19]
10% | O=C(Nc1ccc(Cl)cc1)N1CC2(CC(Oc3ncnc4ccccc34)C2)C1 [Example 29, N-(4-chlorophenyl)-6-(quinazolin-4-yloxy)-2-aza-spiro[3.3]heptan-2-carboxamide]
69% | CC(C(=O)Nc1ccc(Cl)cc1)N1CC2(CC(Nc3ccnc4ccc(F)cc34)C2)C1 (centres unmarked) [Example 54, N-(4-chlorophenyl)-2-(6-((6-fluoroquinolin-4-yl)amino)-2-aza-spiro[3.3]heptan-2-yl)propionamide]
74% | O=C(Nc1ccc(Cl)cc1)N1CC2(CC(Oc3ccnc4ccccc34)C2)C1 [Example 23, N-(4-chlorophenyl)-6-(quinolin-4-yloxy)-2-aza-spiro[3.3]heptan-2-carboxamide]

same assay, conditions: human IFN-γ, 48 hours, read-out: hIDO1-cell base EC50

EC50 | SMILES
20 nM | CC(C(=O)Nc1ccc(Cl)cc1)N1CC2(CC(Oc3ccnc4ccc(F)cc34)C2)C1 (centres unmarked) [Example 39, N-(4-chlorophenyl)-2-(6-((6-fluoroquinolin-4-yl)oxo)-2-aza-spiro[3.3]heptan-2-yl)propionamide]
36 nM | O=C(c1ccc(Cl)cc1)N1CC2(CC(Oc3ccnc4ccc(F)cc34)C2)C1 [Example 6, (4-chlorophenyl)(6-((6-fluoroquinolin-4-yl)oxy)-2-aza-spiro[3.3]heptan-2-yl) methanone]
25 nM | CC(C(=O)Nc1ccc(Cl)cc1)N1CC2(CC(N(C)c3ccnc4ccc(F)cc34)C2)C1 (centres unmarked) [Example 59, N-(4-chloro)-2-(6-((6-fluoroquinolin-4-yl)(methyl)amino)-2-aza-spiro[3.3]heptan-2-yl)propionamide]
33 nM | O=C(Nc1ccc(F)cc1)N1CC2(CC(Oc3ccnc4ccc(F)cc34)C2)C1 [Example 16, N-(4-fluorophenyl)-6-((6-fluoroquinolin-4-yl)oxy)-2-aza-spiro[3.3]heptan-2-carboxamide]
5 nM | CC(C(=O)Nc1ccc(Cl)cc1)N1CC2C(C1)C2Oc1ccnc2ccc(F)cc12 (centres unmarked) [Example 49, N-(4-chlorophenyl)-2-(6-((6-fluoroquinolin-4-yl)oxo)-3-aza-bicyclo[3.1.0]hexan-3-yl)propionamide]
26 nM | O=C(Nc1ccc(Cl)cc1)N1CC2(CC(Oc3ccnc4ccccc34)C2)C1 [Example 23, N-(4-chlorophenyl)-6-(quinolin-4-yloxy)-2-aza-spiro[3.3]heptan-2-carboxamide]
